Laboratory results reported in paper PMC4335062, “Data-Driven Prediction and Design of bZIP Coiled-Coil Interactions” (PLoS Computational Biology, 2015).
Where two headings read alike, the source gives them in different places. Where no end group is shown, it is not given here.

What was measured:
Test in all cases: Direct-binding FRET assay
NFE2 = molecular target: T1, NFE2 (Homo sapiens, UniProt Q16621); conditions: read-out: Kd
T1 construct: made in house
T1 sequence (Q16621 266-329 limits assumed): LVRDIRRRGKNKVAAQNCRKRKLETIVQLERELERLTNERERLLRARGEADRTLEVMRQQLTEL
In short: (§1)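 Wells held 1 mM TCEP-HCl; acceptor protein was serially diluted 2-fold across them, then donor FRET signal was recorded. The heterodimer Kd giving the closest simulated match to the data was assigned, with homodimer Kd values as fixed inputs.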

ATF4 = molecular target: T2, ATF4 (Homo sapiens, UniProt P18848); conditions: read-out: Kd
T2 construct: made in house
T2 sequence (P18848 278-341 limits assumed): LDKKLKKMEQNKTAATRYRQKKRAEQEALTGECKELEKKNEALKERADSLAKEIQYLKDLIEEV
In short: as §1

CREB1 = molecular target: T3, CREB1 (Homo sapiens, UniProt P16220); conditions: mean or single, read-out: Kd
T3 construct: made in house
T3 sequence (P16220 269-327 limits assumed): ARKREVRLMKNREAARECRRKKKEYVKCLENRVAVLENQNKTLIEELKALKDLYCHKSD
In short: as §1

NFE2L3 = molecular target: T4, NFE2L3 (Homo sapiens, UniProt Q9Y4A8); conditions: mean or single, read-out: Kd
T4 construct: made in house
T4 sequence (Q9Y4A8 578-641 limits assumed): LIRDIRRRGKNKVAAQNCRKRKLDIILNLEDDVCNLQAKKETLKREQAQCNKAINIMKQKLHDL
In short: as §1

CREBZF = molecular target: T5, CREBZF (Homo sapiens, UniProt Q9NS37); conditions: read-out: Kd
T5 construct: made in house
T5 sequence (Q9NS37 204-267 limits assumed): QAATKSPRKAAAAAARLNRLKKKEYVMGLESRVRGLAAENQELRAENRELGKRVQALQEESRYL
Experimental: The direct binding assay was performed manually in 384-well plates and is similar to a previously described assay. Wells were filled with 20 μL of 1 mM TCEP-HCl. A 4 μM stock of acceptor protein was made fresh in 1 mM TCEP-HCl, and 20 μL was titrated in 2-fold dilutions over the wells. […] The direct-binding FRET data were fit as previously described. Briefly, the Kd of the designed peptide homodimer was experimentally determined and used with previously determined target homodimer Kd values to determine the heterodimer Kd. The homodimer Kd values used for the human bZIPs were from; experiments done by […] et al. used the same protein constructs for the human bZIP proteins, the same buffer conditions, and the same assay. The fitting used a system of ordinary differential equations to describe the concentrations of homo and heterodimers formed by the donor (D) and acceptor (A) as a function of the heterodimer Kd. MATLAB was used to simulate the binding experiment for different Kd values, and the value that gave the best agreement between simulation and experiment was assigned. A minimum 15% change in the donor fluorescence upon titrating the acceptor peptide from 0 to 1000 nM was required for a fit to be attempted. If this minimum was not met, the interaction was classified as “NS” for no signal change. […] These interactions were marked “AS” to indicate anomalous signal. We attributed this to interactions between the peptides, the dyes and the walls of the assay plates at low concentrations. These curves could not be fit, given their unusual shapes at low concentrations of acceptor. For such curves, we removed the first five points and re-fit the data. […] One example of this is increasing concentrations of acceptor causing an increase in donor fluorescence.

JUN = JUN (Homo sapiens, UniProt P05412); parameters: made in house; conditions: mean or single, read-out: Kd
Experimental: (§2) The direct binding assay was performed manually in 384-well plates and is similar to a previously described assay. Wells were filled with 20 μL of 1 mM TCEP-HCl. A 4 μM stock of acceptor protein was made fresh in 1 mM TCEP-HCl, and 20 μL was titrated in 2-fold dilutions over the wells. […] The direct-binding FRET data were fit as previously described. Briefly, the Kd of the designed peptide homodimer was experimentally determined and used with previously determined target homodimer Kd values to determine the heterodimer Kd. The homodimer Kd values used for the human bZIPs were from; experiments done by […] et al. used the same protein constructs for the human bZIP proteins, the same buffer conditions, and the same assay. The fitting used a system of ordinary differential equations to describe the concentrations of homo and heterodimers formed by the donor (D) and acceptor (A) as a function of the heterodimer Kd. MATLAB was used to simulate the binding experiment for different Kd values, and the value that gave the best agreement between simulation and experiment was assigned. A minimum 15% change in the donor fluorescence upon titrating the acceptor peptide from 0 to 1000 nM was required for a fit to be attempted. If this minimum was not met, the interaction was classified as “NS” for no signal change. […] For such curves, we removed the first five points and re-fit the data.

MAFG = MAFG (Homo sapiens, UniProt O15525); parameters: made in house; conditions: read-out: Kd
Experimental: as §2

ATF6B = ATF6B (Homo sapiens, UniProt Q99941); parameters: made in house; conditions: read-out: Kd
Experimental: as §2

FOS = FOS (Homo sapiens, UniProt P01100); parameters: made in house; conditions: read-out: Kd
Experimental: as §2

[1] = 4°C, C-terminal fluorescein design as donor, TAMRA target titrated
[2] = 4°C, C-terminal rhodamine design, mean or single
[3] = 4°C, N-terminal rhodamine design, mean or single
[4] = 23°C, C-terminal fluorescein design as donor, TAMRA target titrated
[5] = 23°C, C-terminal rhodamine design, mean or single
[6] = 23°C, N-terminal rhodamine design, mean or single
[7] = 37°C, C-terminal fluorescein design as donor, TAMRA target titrated
[8] = 37°C, C-terminal rhodamine design, mean or single
[9] = 37°C, N-terminal rhodamine design, mean or single
[10] = 4°C, C-terminal rhodamine design
[11] = 4°C, N-terminal rhodamine design
[12] = 23°C, C-terminal rhodamine design
[13] = 23°C, N-terminal rhodamine design
[14] = 37°C, C-terminal rhodamine design
[15] = 37°C, N-terminal rhodamine design
[16] = 37°C, C-terminal rhodamine design, repeat 1
[17] = 37°C, C-terminal rhodamine design, repeat 2

Chain of ATF6B (Q99941 325-388 limits assumed): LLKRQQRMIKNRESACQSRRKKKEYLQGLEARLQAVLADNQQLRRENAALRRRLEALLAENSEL
Chain of MAFG (O15525 51-114 limits assumed): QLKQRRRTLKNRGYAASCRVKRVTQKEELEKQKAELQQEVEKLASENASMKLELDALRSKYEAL

“EREAQLENRVAHLKEKNQELKAQNLHLKEALSEAQNRNQELKNDA [XBP1-d1]” was tested, and the Kd (NFE2; [1]) was over 1000 nM, the Kd (NFE2; [2]) was over 1000 nM and the Kd (NFE2; [3]) was over 1000 nM. It also gave a Kd (NFE2; [4]) of over 1000 nM, a Kd (NFE2; [5]) of over 1000 nM and a Kd (NFE2; [6]) of over 1000 nM. The Kd (NFE2; [7]) was over 1000 nM, the Kd (NFE2; [8]) was over 1000 nM and the Kd (NFE2; [9]) was over 1000 nM. For the same sequence, the Kd (ATF4; [2]) was over 1000 nM, the Kd (ATF4; [3]) was over 1000 nM and the Kd (ATF4; [5]) was over 1000 nM. The Kd (ATF4; [6]) was over 1000 nM, the Kd (ATF4; [8]) was over 1000 nM and the Kd (ATF4; [9]) was over 1000 nM. The Kd (CREB1; [10]) was over 5000 nM, the Kd (CREB1; [11]) was over 1000 nM and the Kd (CREB1; [12]) was over 1000 nM. The Kd (CREB1; [13]) was over 1000 nM, the Kd (CREB1; [14]) was over 1000 nM and the Kd (CREB1; [15]) was over 1000 nM. It also gave a Kd (NFE2L3; [10]) of over 1000 nM, a Kd (NFE2L3; [11]) of over 1000 nM and a Kd (NFE2L3; [12]) of over 1000 nM. For the same sequence, the Kd (NFE2L3; [13]) was over 1000 nM, the Kd (NFE2L3; [14]) was over 5000 nM and the Kd (NFE2L3; [15]) was over 1000 nM. For the same sequence, the Kd (CREBZF; [1]) was over 1000 nM, the Kd (CREBZF; [3]) was over 1000 nM and the Kd (CREBZF; [4]) was over 1000 nM. The Kd (CREBZF; [6]) was over 1000 nM, the Kd (CREBZF; [7]) was over 1000 nM and the Kd (CREBZF; [8]) was over 1000 nM. It also gave a Kd (CREBZF; [16]) of over 1000 nM, a Kd (CREBZF; [17]) of over 1000 nM and a Kd (CREBZF; 37°C, C-terminal rhodamine design, repeat 3) of over 1000 nM. It also gave a Kd (CREBZF; [9]) of over 1000 nM, a Kd (JUN; [10]) of over 1000 nM and a Kd (JUN; [11]) of over 1000 nM. The Kd (JUN; [12]) was over 1000 nM, the Kd (JUN; [13]) was over 1000 nM and the Kd (JUN; [14]) was over 1000 nM. It also gave a Kd (JUN; [15]) of over 1000 nM, a Kd (MAFG; [1]) of over 1000 nM and a Kd (MAFG; [2]) of over 1000 nM. The Kd (MAFG; [3]) was over 1000 nM, the Kd (MAFG; [4]) was over 1000 nM and the Kd (MAFG; [5]) was over 1000 nM. It also gave a Kd (MAFG; [6]) of over 1000 nM, a Kd (MAFG; [7]) of over 1000 nM and a Kd (MAFG; [8]) of over 1000 nM. It also gave a Kd (MAFG; [9]) of over 1000 nM, a Kd (ATF6B; [1]) of over 1000 nM and a Kd (ATF6B; 4°C, C-terminal rhodamine design, repeat 1) of 200 to 1000 nM. For the same sequence, the Kd (ATF6B; 4°C, C-terminal rhodamine design, repeat 2) was over 1000 nM, the Kd (ATF6B; [4]) was over 1000 nM and the Kd (ATF6B; [6]) was over 1000 nM. It also gave a Kd (ATF6B; [7]) of over 1000 nM, a Kd (ATF6B; [8]) of over 1000 nM and a Kd (ATF6B; [16]) of over 1000 nM. It also gave a Kd (ATF6B; [17]) of over 1000 nM, a Kd (ATF6B; [9]) of over 1000 nM and a Kd (FOS; [1]) of over 1000 nM. It also gave a Kd (FOS; [2]) of over 1000 nM, a Kd (FOS; [3]) of over 1000 nM and a Kd (FOS; [4]) of over 1000 nM. It also gave a Kd (FOS; [5]) of over 1000 nM, a Kd (FOS; [6]) of over 1000 nM and a Kd (FOS; [7]) of over 1000 nM. It also gave a Kd (FOS; [8]) of over 1000 nM and a Kd (FOS; [9]) of over 1000 nM.

For “KRIAYLRQRIAELRNENHVLESRIQRMEKEKDALQQDRDHLEYEL [ATF5-d1]”, the Kd (NFE2; [2]) was 162 nM, the Kd (NFE2; [3]) was over 5000 nM and the Kd (NFE2; [5]) was over 5000 nM. It also gave a Kd (NFE2; [6]) of over 1000 nM, a Kd (NFE2; [8]) of over 5000 nM and a Kd (NFE2; [9]) of over 1000 nM. It also gave a Kd (ATF4; [2]) of 1 nM, a Kd (ATF4; [3]) of over 1000 nM and a Kd (ATF4; 4°C, N-terminal rhodamine design, repeat 1) of over 1000 nM. It also gave a Kd (ATF4; 4°C, N-terminal rhodamine design, repeat 2) of over 1000 nM, a Kd (ATF4; 4°C, N-terminal rhodamine design, repeat 3) of over 1000 nM and a Kd (ATF4; [5]) of 1 nM. For the same sequence, the Kd (ATF4; 23°C, N-terminal rhodamine design, repeat 1) was over 5000 nM, the Kd (ATF4; 23°C, N-terminal rhodamine design, repeat 2) was over 5000 nM and the Kd (CREB1; [10]) was 133 nM. For the same sequence, the Kd (CREB1; [11]) was 506 nM, the Kd (CREB1; [12]) was 589 nM and the Kd (CREB1; [13]) was over 5000 nM. It also gave a Kd (CREB1; [15]) of over 1000 nM, a Kd (NFE2L3; [10]) of over 5000 nM and a Kd (NFE2L3; [11]) of over 1000 nM. For the same sequence, the Kd (NFE2L3; [12]) was over 1000 nM, the Kd (NFE2L3; [13]) was over 1000 nM and the Kd (NFE2L3; [14]) was 911 nM. The Kd (NFE2L3; [15]) was over 1000 nM, the Kd (CREBZF; [2]) was 409 nM and the Kd (CREBZF; [3]) was 375 nM. For the same sequence, the Kd (CREBZF; [5]) was over 5000 nM, the Kd (CREBZF; [6]) was over 5000 nM and the Kd (CREBZF; [8]) was over 1000 nM. For the same sequence, the Kd (JUN; [10]) was 119 nM, the Kd (JUN; [11]) was over 5000 nM and the Kd (JUN; [12]) was over 5000 nM. The Kd (JUN; [13]) was over 5000 nM, the Kd (JUN; [14]) was over 5000 nM and the Kd (JUN; [15]) was over 5000 nM. For the same sequence, the Kd (MAFG; [2]) was over 5000 nM, the Kd (MAFG; [5]) was over 1000 nM and the Kd (MAFG; [6]) was over 1000 nM. For the same sequence, the Kd (MAFG; [8]) was over 1000 nM, the Kd (MAFG; [9]) was over 1000 nM and the Kd (ATF6B; [3]) was over 5000 nM. The Kd (ATF6B; 23°C, C-terminal rhodamine design, repeat 1) was over 5000 nM, the Kd (ATF6B; 23°C, C-terminal rhodamine design, repeat 2) was over 5000 nM and the Kd (ATF6B; [6]) was over 5000 nM. For the same sequence, the Kd (ATF6B; [16]) was over 5000 nM, the Kd (ATF6B; [17]) was over 5000 nM and the Kd (FOS; [3]) was 89.6 nM. It also gave a Kd (FOS; [6]) of 753 nM, a Kd (FOS; [16]) of over 5000 nM and a Kd (FOS; [17]) of over 5000 nM.
